From patent publication US20120270237A9, “METHODS FOR THE IDENTIFICATION OF KINASE INTERACTING MOLECULES AND FOR THE PURIFICATION OF KINASE PROTEINS” (Cellzone AG, priority 2009, published 2012)

Key:
Assay in all cases: Kinobeads competition binding, L-363 cell lysate
Design in all cases: endogenous in cells
Settings in all cases: 10 μM free compound, L-363 lysate
[1] = molecular target: CaMK2d (Homo sapiens, UniProt Q13557)
Experimental: (§1) To one aliquot of cell lysate 10 μM of the free compound (FIG. 3, CZC31326) was added and allowed to bind to proteins in the lysate. Then the affinity matrix with the immobilized compound was added to capture proteins that were not interacting with the previously added free compound. Beads were separated from the lysate and bead bound proteins were eluted in SDS sample buffer and subsequently separated by SDS-Polyacrylamide gel electrophoresis (FIG. 8). Suitable gel bands were cut out and subjected to in-gel proteolytic digestion with trypsin. The second lysate aliquot was processed identically, however no free compound was added (DMSO solvent control). Peptides originating from samples 1 and 2 were labeled with iTRAQ reagents (iTRAQ 114 and iTRAQ 117) and the combined samples were analyzed with a nano-flow liquid chromatography system coupled online to a tandem mass spectrometer (LC-MS/MS) experiment followed by iTRAQ reporter ion quantification in the MS/MS spectra as described in Example 2.
(§2) For this experiment the human plasma cell leukaemia line L-363 was used (German Collection of Microorganisms and Cell Cultures, DSMZ number ACC49, Braunschweig, Germany). Cells were treated for three hours with 20 μM of the proteasome inhibitor MG132 (Z-Leu-Leu-Leu-al, Sigma C2211) prior to cell harvesting.

[2] = molecular target: CaMK2g (Homo sapiens, UniProt Q13555)
Experimental: as §1, §2

[3] = molecular target: FER (Homo sapiens, UniProt P16591)
Sequence of FER (P16591 whole entry): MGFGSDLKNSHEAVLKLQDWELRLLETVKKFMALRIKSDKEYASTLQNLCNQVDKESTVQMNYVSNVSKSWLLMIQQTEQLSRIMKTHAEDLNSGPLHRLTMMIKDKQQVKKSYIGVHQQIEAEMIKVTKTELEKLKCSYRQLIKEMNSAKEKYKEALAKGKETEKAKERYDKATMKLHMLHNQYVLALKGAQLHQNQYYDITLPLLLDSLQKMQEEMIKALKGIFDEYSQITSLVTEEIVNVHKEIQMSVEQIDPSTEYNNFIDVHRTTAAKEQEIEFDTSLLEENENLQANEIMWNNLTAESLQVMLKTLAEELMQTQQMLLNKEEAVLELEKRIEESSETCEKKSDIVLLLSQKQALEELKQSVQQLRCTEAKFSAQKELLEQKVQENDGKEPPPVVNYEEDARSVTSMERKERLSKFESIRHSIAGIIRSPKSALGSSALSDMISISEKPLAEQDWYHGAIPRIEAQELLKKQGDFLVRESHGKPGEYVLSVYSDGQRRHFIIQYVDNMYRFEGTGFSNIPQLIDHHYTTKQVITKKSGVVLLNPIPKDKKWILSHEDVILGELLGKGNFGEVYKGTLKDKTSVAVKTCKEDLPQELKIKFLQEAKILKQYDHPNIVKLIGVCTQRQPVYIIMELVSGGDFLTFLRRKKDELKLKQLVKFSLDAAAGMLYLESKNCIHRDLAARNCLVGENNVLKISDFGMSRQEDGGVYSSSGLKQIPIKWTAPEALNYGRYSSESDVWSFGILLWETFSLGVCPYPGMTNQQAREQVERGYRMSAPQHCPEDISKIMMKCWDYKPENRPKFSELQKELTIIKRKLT
Experimental: as §1, §2

[4] = molecular target: T1, GAK (Homo sapiens, UniProt O14976)
T1 sequence (O14976 1-1311): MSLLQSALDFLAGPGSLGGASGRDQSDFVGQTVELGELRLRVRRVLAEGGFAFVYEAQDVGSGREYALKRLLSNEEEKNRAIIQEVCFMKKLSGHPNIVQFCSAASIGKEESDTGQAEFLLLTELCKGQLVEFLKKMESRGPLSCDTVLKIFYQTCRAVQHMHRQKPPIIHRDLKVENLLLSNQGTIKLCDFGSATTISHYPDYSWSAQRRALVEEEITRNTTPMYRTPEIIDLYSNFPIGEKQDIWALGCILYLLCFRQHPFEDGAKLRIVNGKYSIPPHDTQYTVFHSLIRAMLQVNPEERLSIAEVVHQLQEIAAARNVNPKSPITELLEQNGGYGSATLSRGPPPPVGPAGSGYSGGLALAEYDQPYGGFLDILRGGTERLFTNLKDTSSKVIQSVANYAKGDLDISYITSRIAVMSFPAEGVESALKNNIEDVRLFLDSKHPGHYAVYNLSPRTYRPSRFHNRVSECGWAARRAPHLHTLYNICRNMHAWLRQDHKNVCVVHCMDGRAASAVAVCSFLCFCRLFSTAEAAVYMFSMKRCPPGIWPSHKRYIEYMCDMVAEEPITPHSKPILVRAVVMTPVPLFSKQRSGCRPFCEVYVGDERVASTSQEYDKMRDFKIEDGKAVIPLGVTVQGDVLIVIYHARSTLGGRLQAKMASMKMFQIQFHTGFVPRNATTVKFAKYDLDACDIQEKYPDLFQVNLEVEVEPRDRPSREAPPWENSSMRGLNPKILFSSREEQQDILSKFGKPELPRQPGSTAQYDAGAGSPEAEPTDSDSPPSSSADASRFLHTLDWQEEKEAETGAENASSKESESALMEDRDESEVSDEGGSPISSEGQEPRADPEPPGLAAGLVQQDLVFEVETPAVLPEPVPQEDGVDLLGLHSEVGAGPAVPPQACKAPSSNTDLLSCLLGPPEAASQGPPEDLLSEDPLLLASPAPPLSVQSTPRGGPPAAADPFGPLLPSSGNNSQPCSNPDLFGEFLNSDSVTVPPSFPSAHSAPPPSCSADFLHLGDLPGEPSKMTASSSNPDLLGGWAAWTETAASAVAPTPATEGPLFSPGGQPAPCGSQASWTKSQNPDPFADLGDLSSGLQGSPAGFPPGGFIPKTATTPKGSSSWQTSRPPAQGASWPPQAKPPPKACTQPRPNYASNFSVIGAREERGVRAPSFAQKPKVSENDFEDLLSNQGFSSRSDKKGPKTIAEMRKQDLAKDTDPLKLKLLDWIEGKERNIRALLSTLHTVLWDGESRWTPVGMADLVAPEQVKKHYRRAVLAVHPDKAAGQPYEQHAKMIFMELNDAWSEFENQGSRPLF
Experimental: as §1, §2

[5] = molecular target: HIPK2 (Homo sapiens, UniProt Q9H2X6)
Sequence of HIPK2 (Q9H2X6 whole entry): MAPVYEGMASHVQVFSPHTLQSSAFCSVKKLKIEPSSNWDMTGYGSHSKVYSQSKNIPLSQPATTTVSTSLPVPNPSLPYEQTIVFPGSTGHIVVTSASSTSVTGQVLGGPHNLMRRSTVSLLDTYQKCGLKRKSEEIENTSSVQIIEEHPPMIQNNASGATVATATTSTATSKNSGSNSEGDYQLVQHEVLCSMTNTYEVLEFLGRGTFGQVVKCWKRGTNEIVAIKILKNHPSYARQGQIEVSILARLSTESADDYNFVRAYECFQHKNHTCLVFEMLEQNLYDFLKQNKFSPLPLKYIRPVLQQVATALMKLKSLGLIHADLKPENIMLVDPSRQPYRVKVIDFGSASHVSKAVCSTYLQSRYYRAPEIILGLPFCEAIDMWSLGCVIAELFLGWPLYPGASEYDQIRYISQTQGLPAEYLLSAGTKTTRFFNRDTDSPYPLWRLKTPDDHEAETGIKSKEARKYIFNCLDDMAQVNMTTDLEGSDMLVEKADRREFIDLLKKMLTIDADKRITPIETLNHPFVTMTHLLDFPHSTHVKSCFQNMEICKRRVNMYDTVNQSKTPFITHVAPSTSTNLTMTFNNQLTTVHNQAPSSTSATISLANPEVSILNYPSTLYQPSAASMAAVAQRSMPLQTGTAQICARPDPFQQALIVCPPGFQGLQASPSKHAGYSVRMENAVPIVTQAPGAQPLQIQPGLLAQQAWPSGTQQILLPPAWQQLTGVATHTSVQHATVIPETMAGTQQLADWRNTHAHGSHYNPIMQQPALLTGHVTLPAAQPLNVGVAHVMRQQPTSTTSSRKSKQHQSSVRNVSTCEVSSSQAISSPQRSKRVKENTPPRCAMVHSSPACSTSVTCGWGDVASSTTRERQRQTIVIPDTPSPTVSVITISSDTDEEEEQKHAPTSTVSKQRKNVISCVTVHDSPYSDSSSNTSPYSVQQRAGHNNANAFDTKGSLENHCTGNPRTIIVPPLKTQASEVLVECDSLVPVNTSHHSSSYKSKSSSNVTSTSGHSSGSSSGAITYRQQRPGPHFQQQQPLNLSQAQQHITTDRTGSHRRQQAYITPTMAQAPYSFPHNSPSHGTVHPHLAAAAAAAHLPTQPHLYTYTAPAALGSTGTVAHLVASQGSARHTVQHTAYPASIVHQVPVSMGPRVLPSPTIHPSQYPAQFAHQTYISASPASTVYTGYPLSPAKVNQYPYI
Experimental: as §1, §2

[6] = molecular target: T2, MAP3K2 (Homo sapiens, UniProt Q9Y2U5)
T2 sequence (Q9Y2U5 1-619): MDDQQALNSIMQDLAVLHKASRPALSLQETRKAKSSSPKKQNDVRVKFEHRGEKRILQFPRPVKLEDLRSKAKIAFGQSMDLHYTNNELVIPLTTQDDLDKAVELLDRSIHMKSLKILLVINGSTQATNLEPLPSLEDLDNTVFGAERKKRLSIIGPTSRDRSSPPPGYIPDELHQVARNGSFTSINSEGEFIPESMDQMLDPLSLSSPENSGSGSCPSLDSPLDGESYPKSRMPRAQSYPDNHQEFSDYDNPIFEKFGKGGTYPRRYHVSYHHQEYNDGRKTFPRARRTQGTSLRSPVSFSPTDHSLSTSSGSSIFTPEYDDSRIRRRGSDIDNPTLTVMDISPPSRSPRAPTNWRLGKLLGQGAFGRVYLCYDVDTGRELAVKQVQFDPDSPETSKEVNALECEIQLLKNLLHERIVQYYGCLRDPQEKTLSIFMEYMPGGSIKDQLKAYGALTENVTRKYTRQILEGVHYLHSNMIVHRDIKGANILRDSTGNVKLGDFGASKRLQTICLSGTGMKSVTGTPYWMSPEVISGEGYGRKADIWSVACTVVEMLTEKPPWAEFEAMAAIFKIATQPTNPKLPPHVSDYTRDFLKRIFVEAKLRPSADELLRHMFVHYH
Experimental: as §1, §2

[7] = molecular target: MSK2 (Homo sapiens, UniProt O75676)
Sequence of MSK2 (O75676 whole entry): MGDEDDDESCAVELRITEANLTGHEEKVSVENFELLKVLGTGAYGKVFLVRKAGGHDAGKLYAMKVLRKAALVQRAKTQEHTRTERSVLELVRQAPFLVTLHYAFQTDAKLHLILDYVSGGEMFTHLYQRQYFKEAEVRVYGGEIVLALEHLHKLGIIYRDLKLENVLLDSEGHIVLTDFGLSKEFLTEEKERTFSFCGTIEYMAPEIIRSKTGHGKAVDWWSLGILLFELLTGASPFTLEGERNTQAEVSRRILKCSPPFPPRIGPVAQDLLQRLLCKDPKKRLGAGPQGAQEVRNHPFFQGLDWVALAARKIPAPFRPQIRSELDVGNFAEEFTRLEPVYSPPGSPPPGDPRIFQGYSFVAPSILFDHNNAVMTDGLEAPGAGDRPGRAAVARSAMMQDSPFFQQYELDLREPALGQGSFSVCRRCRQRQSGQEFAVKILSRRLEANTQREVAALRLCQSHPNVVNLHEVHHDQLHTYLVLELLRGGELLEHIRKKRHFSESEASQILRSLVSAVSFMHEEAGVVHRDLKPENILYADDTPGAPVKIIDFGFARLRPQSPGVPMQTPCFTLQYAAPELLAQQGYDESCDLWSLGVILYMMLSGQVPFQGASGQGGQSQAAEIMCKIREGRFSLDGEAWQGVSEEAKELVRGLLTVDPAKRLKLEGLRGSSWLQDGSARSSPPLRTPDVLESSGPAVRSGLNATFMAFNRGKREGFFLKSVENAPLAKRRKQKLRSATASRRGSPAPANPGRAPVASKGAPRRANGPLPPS
Experimental: as §1, §2

[8] = molecular target: PLK1 (Homo sapiens, UniProt P53350)
Sequence of PLK1 (P53350 whole entry): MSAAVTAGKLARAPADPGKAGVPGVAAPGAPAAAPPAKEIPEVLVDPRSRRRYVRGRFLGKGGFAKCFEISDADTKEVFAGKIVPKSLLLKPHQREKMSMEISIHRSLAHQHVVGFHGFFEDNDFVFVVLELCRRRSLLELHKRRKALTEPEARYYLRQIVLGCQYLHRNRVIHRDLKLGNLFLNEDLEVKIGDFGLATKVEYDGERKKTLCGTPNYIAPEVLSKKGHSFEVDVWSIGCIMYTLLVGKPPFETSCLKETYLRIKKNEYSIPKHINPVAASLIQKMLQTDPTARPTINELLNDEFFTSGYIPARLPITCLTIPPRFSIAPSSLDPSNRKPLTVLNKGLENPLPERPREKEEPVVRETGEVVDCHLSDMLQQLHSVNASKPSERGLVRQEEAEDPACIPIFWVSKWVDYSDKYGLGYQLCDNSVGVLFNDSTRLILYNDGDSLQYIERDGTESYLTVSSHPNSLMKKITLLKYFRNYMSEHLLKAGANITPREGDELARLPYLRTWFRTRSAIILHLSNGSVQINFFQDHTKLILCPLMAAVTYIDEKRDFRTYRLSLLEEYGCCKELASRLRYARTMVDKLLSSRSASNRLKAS
Experimental: as §1, §2

[9] = molecular target: RSK2 (Homo sapiens, UniProt P51812)
Sequence of RSK2 (P51812 whole entry): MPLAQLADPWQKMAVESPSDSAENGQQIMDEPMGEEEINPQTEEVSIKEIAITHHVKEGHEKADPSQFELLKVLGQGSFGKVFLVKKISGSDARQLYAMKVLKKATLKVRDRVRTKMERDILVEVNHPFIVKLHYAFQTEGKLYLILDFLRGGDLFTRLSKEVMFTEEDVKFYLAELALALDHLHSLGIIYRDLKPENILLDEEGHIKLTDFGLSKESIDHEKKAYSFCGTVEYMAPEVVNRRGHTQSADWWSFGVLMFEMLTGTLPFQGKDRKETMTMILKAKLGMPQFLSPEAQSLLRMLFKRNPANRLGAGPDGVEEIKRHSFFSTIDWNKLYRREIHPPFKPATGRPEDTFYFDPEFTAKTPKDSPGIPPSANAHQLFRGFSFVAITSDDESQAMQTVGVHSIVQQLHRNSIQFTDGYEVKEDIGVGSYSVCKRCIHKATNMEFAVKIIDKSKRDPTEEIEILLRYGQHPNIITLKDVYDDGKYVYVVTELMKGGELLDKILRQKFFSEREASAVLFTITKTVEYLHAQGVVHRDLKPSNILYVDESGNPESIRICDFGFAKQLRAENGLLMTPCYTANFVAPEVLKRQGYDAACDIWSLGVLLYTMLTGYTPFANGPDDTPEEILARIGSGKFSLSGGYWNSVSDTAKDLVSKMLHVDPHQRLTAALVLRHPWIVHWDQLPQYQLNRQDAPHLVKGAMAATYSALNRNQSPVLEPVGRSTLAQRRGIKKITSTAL
Experimental: as §1, §2

Sequence of CaMK2d (Q13557 whole entry): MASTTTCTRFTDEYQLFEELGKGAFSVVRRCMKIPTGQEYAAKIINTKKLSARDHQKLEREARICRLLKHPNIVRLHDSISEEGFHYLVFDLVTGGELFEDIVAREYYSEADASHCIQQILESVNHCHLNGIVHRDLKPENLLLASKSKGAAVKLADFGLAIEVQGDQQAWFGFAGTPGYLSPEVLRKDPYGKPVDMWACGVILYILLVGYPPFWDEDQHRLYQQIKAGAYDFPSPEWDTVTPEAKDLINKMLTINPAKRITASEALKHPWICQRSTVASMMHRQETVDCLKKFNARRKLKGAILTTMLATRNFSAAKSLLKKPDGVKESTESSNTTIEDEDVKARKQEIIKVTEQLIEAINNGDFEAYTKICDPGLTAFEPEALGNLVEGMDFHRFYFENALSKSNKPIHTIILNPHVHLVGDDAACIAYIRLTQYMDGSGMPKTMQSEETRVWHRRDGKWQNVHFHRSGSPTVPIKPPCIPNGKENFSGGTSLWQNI

inhibition at 10 µM [1]: 78%
inhibition at 10 µM [2]: 75.9%
inhibition at 10 µM [3]: 97.8%
inhibition at 10 µM [4]: 98.2%
inhibition at 10 µM [5]: 95.6%
inhibition at 10 µM [6]: 96%
inhibition at 10 µM [7]: 94.2%
inhibition at 10 µM [8]: 96.8%
inhibition at 10 µM [9]: 97.7%
SMILES: CS(=O)(=O)Nc1ccccc1Nc1nc(Nc2cccc(OCCN)c2)ncc1Cl [CZC31326, N-(2-(2-(3-(2-aminoethoxy)phenylamino)-5-chloropyrimidin-4-ylamino)phenyl)methanesulfonamide]
